For orientation: MIC means the least concentration at which growth counts as inhibited.

Common to all, as to assay type: functional
The subject of one experiment is Bacillus subtilis. Kind of experiment: Antibacterial activity against Bacillus subtilis after 24 hr by broth dilution method. A general note: Dilution methods test growth across graded concentrations, often in twofold steps.
A further experiment concerns Klebsiella pneumoniae. Nature of the experiment: Antibacterial activity against Klebsiella pneumoniae after 24 hr by broth dilution method.
For experiment [1], the system named is Staphylococcus epidermidis. Nature of the experiment: Antibacterial activity against Staphylococcus epidermidis after 24 hr by broth dilution method.
For a further experiment, the system named is Pseudomonas aeruginosa. Kind of experiment: Antibacterial activity against Pseudomonas aeruginosa after 24 hr by broth dilution method.
For experiment [2], the system named is Diutina rugosa. Nature of the experiment: Antifungal activity against Candida rugosa at 100 ug after 48 hr by agar cup bioassay. Particulars: read-out: DIZ.
Experiment [3] relates to Diutina rugosa. Nature of the experiment: Antifungal activity against Candida rugosa at 150 ug after 48 hr by agar cup bioassay. Particulars: read-out: DIZ.
In experiment [4] the test system is Candida albicans. Nature of the experiment: Antifungal activity against Candida albicans at 100 ug after 48 hr by agar cup bioassay. As to conditions: read-out: DIZ.
Experiment [5] has as its system Candida albicans. Nature of the experiment: Antifungal activity against Candida albicans at 150 ug after 48 hr by agar cup bioassay. As to conditions: read-out: DIZ.
The next experiment concerns Escherichia coli. Nature of the experiment: Antibacterial activity against Escherichia coli after 24 hr by broth dilution method.
For the next experiment, the system named is Staphylococcus aureus. Nature of the experiment: Antibacterial activity against Staphylococcus aureus after 24 hr by broth dilution method.
Experiment [6] relates to Candida albicans. Nature of the experiment: Antifungal activity against Candida albicans at 50 ug after 48 hr by agar cup bioassay. Particulars: read-out: DIZ.
In experiment [7] the test system is Diutina rugosa. Kind of experiment: Antifungal activity against Candida rugosa at 50 ug after 48 hr by agar cup bioassay. Particulars: read-out: DIZ.

The structures appear in SMILES notation. Values after ≈ are worked out from the molar mass of the structure shown.

Turning to `NC(=O)N/N=C/c1c(-c2ccccc2)n(CC(=O)c2ccccc2)c2ccccc12`, the MIC in the experiment with Bacillus subtilis came out at 125 µg/mL (≈ 315 µM); in the experiment with Klebsiella pneumoniae, 115 µg/mL (≈ 290 µM); in [1], 110 µg/mL (≈ 277 µM); with Pseudomonas aeruginosa it was 100 µg/mL (≈ 252 µM); in the experiment on Escherichia coli, 100 µg/mL (≈ 252 µM); with Staphylococcus aureus it was 130 µg/mL (≈ 328 µM). The zone of inhibition at 100 µg/disc in the experiment with Diutina rugosa [2] and with Candida albicans [4] was 0 mm throughout. For the same compound, the zone of inhibition at 150 µg/disc with Diutina rugosa [3] and in the experiment with Candida albicans [5] was 8 mm throughout.
Take `NC(=O)N/N=C/c1c(-c2ccccc2)n(CC(=O)c2ccc(Cl)cc2)c2ccccc12`: the MIC against Bacillus subtilis was 110 µg/mL (≈ 255 µM); against Klebsiella pneumoniae, 120 µg/mL (≈ 278 µM); in experiment [1], 140 µg/mL (≈ 325 µM); against Pseudomonas aeruginosa, 115 µg/mL (≈ 267 µM); in the experiment with Escherichia coli, 125 µg/mL (≈ 290 µM); in the experiment on Staphylococcus aureus, 130 µg/mL (≈ 302 µM). For the same compound, the zone of inhibition at 100 µg/disc with Diutina rugosa [2] came out at 5 mm; in the experiment on Candida albicans [4] it was 4 mm. Besides, the zone of inhibition at 150 µg/disc was found to be 12 mm in the experiment on Diutina rugosa [3] and 10 mm in the experiment with Candida albicans [5].
Turning to `NC(=O)N/N=C/c1c(-c2ccccc2)n(CC(=O)c2ccc(Br)cc2)c2ccccc12`, the MIC amounted to 105 µg/mL (≈ 221 µM) in the experiment with Bacillus subtilis; 130 µg/mL (≈ 273 µM) with Klebsiella pneumoniae; 130 µg/mL (≈ 273 µM) in experiment [1]; 135 µg/mL (≈ 284 µM) in the experiment with Pseudomonas aeruginosa; 120 µg/mL (≈ 252 µM) against Escherichia coli; 125 µg/mL (≈ 263 µM) in the experiment with Staphylococcus aureus.
Consider `Cc1ccc(C(=O)Cn2c(-c3ccccc3)c(/C=N/NC(N)=O)c3ccccc32)cc1`, for which the MIC in the experiment with Bacillus subtilis is over 150 µg/mL; in the experiment with Klebsiella pneumoniae, over 150 µg/mL; in [1], 125 µg/mL (≈ 305 µM); in the experiment with Pseudomonas aeruginosa, over 150 µg/mL; in the experiment with Escherichia coli, 130 µg/mL (≈ 317 µM); in the experiment with Staphylococcus aureus, 130 µg/mL (≈ 317 µM). Further, the zone of inhibition at 100 µg/disc with Diutina rugosa [2] and with Candida albicans [4] was 7 mm in each case. For the same compound, the zone of inhibition at 150 µg/disc in the experiment on Diutina rugosa [3] and in the experiment on Candida albicans [5] was 10 mm throughout.
`COc1ccc(C(=O)Cn2c(-c3ccccc3)c(/C=N/NC(N)=O)c3ccccc32)cc1`: the MIC against Bacillus subtilis came out at 140 µg/mL (≈ 328 µM); against Klebsiella pneumoniae, 120 µg/mL (≈ 281 µM); in experiment [1] it was 130 µg/mL (≈ 305 µM); against Pseudomonas aeruginosa it was 145 µg/mL (≈ 340 µM); against Escherichia coli, 140 µg/mL (≈ 328 µM); against Staphylococcus aureus, 110 µg/mL (≈ 258 µM). Besides, the zone of inhibition at 100 µg/disc with Diutina rugosa [2] and in the experiment with Candida albicans [4] was 8 mm in each case. For the same compound, the zone of inhibition at 150 µg/disc with Diutina rugosa [3] and in the experiment with Candida albicans [5] was 10 mm throughout.
For `NC(=O)N/N=C/c1c(-c2ccccc2)n(CC(=O)c2ccc([N+](=O)[O-])cc2)c2ccccc12`, the MIC in the experiment with Bacillus subtilis was 120 µg/mL (≈ 272 µM); in the experiment on Klebsiella pneumoniae it was 37.5 µg/mL (≈ 84.9 µM); in [1], 110 µg/mL (≈ 249 µM); with Pseudomonas aeruginosa it was 75 µg/mL (≈ 170 µM); with Escherichia coli, 130 µg/mL (≈ 294 µM); in the experiment with Staphylococcus aureus, 125 µg/mL (≈ 283 µM). Also, the results for the zone of inhibition at 100 µg/disc in the experiment on Diutina rugosa [2] and in the experiment with Candida albicans [4] were 10 mm and 9 mm, respectively. Besides, the zone of inhibition at 150 µg/disc in the experiment on Diutina rugosa [3] and in the experiment on Candida albicans [5] was 14 mm each time.
With `NC(=O)N/N=C/c1c(-c2ccccc2)n(CC(=O)c2ccc(-c3ccccc3)cc2)c2ccccc12`, the MIC against Bacillus subtilis is over 150 µg/mL; in the experiment with Klebsiella pneumoniae, 135 µg/mL (≈ 286 µM); in experiment [1], 130 µg/mL (≈ 275 µM); against Pseudomonas aeruginosa it was 105 µg/mL (≈ 222 µM); against Escherichia coli, 120 µg/mL (≈ 254 µM); in the experiment on Staphylococcus aureus, 110 µg/mL (≈ 233 µM).
Take `C=CCn1c(-c2ccccc2)c(/C=N/NC(N)=O)c2ccccc21`: the MIC was 140 µg/mL (≈ 440 µM) against Bacillus subtilis; over 150 µg/mL in the experiment on Klebsiella pneumoniae; 115 µg/mL (≈ 361 µM) in experiment [1]; 125 µg/mL (≈ 393 µM) against Pseudomonas aeruginosa; 120 µg/mL (≈ 377 µM) against Escherichia coli; 125 µg/mL (≈ 393 µM) with Staphylococcus aureus. For the same compound, the zone of inhibition at 100 µg/disc turned out to be 7 mm in the experiment with Diutina rugosa [2] and 10 mm with Candida albicans [4]. In addition, the zone of inhibition at 150 µg/disc in the experiment with Diutina rugosa [3] stood at 12 mm; with Candida albicans [5], 15 mm.
In the case of `CCCCn1c(-c2ccccc2)c(/C=N/NC(N)=O)c2ccccc21`, the MIC is over 150 µg/mL against Bacillus subtilis; 110 µg/mL (≈ 329 µM) against Klebsiella pneumoniae; 135 µg/mL (≈ 404 µM) in experiment [1]; 120 µg/mL (≈ 359 µM) against Pseudomonas aeruginosa; 140 µg/mL (≈ 419 µM) against Escherichia coli; 125 µg/mL (≈ 374 µM) with Staphylococcus aureus. For the same compound, the zone of inhibition at 100 µg/disc with Diutina rugosa [2] and with Candida albicans [4] was 9 mm throughout. Besides, the zone of inhibition at 150 µg/disc with Diutina rugosa [3] came out at 10 mm; in the experiment with Candida albicans [5], 12 mm.
As for `C#CCn1c(-c2ccccc2)c(/C=N/NC(N)=O)c2ccccc21`, the MIC with Bacillus subtilis was 125 µg/mL (≈ 395 µM); in the experiment on Klebsiella pneumoniae, 110 µg/mL (≈ 348 µM); in experiment [1], over 150 µg/mL; with Pseudomonas aeruginosa, over 150 µg/mL; in the experiment with Escherichia coli, over 150 µg/mL; in the experiment with Staphylococcus aureus it was over 150 µg/mL. Further, the zone of inhibition at 100 µg/disc was 10 mm in the experiment on Diutina rugosa [2] and 8 mm in the experiment with Candida albicans [4]. Moreover, the zone of inhibition at 150 µg/disc is 15 mm in the experiment with Diutina rugosa [3] and 13 mm in the experiment with Candida albicans [5].
Turning to `C[C@@H]1[C@H](O)[C@@H](C)/C=C/C=C/C=C/C=C/C=C/C=C/C=C/[C@H](O[C@@H]2O[C@H](C)[C@@H](O)[C@H](N)[C@@H]2O)C[C@@H]2O[C@](O)(C[C@@H](O)C[C@@H](O)[C@H](O)CC[C@@H](O)C[C@@H](O)CC(=O)O[C@H]1C)C[C@H](O)[C@H]2C(=O)O` [AMPHOTERICIN B], the zone of inhibition at 50 µg/disc in the experiment on Candida albicans [6] worked out at 23.5 mm; in the experiment on Diutina rugosa [7], 21 mm.
For the compound `O=C(O)c1cn(C2CC2)c2cc(N3CCNCC3)c(F)cc2c1=O` [CIPROFLOXACIN], the MIC was 24 µg/mL (≈ 72.4 µM) against Bacillus subtilis, 25 µg/mL (≈ 75.4 µM) in the experiment on Klebsiella pneumoniae, 22 µg/mL (≈ 66.4 µM) in [1] and 20 µg/mL (≈ 60.4 µM) with Escherichia coli.

The record behind these values is ChEMBL document CHEMBL3045633, “Synthesis and antimicrobial activity of newer indole semicarbazones” (2012).
